Patent publication US12060349B2, “Glucosylceramide synthase inhibitors” (Genzyme Corporation, priority 2012, dated 2024)
pIC50: −log10 of the molar value. Where two headings read alike, the source gives them in different places.

What was measured:
[1] = molecular target: T1, glucosylceramide synthase (Homo sapiens, UniProt Q16739); experiment: microsomal assay measuring conversion of ceramide to glucosylceramide by HPLC (GCS IC50); format: biochemical; conditions: concentration causing 50% inhibition of glucosylceramide synthase activity
T1 construct: Microsomes were isolated from A375 human melanoma cells; endogenous in cells; host or cells: A375 human melanoma cells (microsomal fraction, 100,000 g pellet)
T1 sequence (Q16739 1-394): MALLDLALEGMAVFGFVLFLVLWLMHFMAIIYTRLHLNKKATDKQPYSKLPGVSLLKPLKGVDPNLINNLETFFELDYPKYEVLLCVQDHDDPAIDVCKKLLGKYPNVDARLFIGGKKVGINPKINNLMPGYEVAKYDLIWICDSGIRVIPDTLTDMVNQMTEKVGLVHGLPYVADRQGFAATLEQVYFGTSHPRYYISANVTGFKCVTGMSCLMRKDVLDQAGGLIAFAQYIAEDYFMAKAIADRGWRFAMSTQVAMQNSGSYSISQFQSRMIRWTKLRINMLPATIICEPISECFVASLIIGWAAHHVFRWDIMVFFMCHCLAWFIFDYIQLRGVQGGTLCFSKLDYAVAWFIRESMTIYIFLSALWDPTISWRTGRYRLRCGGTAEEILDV
Procedure, shortened: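 IC50 is the compound concentration halving glucosylceramide synthase activity. Activity was measured in microsomes, with HPLC quantifying glucosylceramide formed from ceramide.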

[2] = test system: GM3 expression on the cell surface, B16 mouse melanoma cells; experiment: cell based phenotypic assay, cell surface GM3 by antibody mediated immunofluorescence, B16 (GM3 B16 IC50); conditions: 50% inhibition of GM3 expression on the cell surface
Procedure, shortened: (§1)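 B16 mouse and C32 human melanoma cells; cell-surface GM3 measured by antibody-mediated immunofluorescence, giving IC50.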

[3] = test system: GM3 expression on the cell surface, C32 human melanoma cells; experiment: cell based phenotypic assay, cell surface GM3 by antibody mediated immunofluorescence, C32 (GM3 C32 IC50); conditions: 50% inhibition of GM3 expression on the cell surface
Procedure, shortened: as §1

B16 mouse melanoma cells = experiment: cell viability in the B16 cell-based assay (Viability, B16 IC50)
Procedure, shortened: (§2)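 Viability readouts were run alongside the GM3 cell-surface assay in the same B16 and C32 cultures. A figure above 10 indicates no cell death.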

C32 human melanoma cells = experiment: cell viability in the C32 cell-based assay (Viability, C32 IC50); conditions: concentration causing 50% cell death, values greater than 10 represent a lack of cell death
Procedure, shortened: as §2

[4] = Mus musculus, read-out: GM3 B16 IC50, B16 mouse melanoma cells
[5] = Homo sapiens, read-out: GM3 C32 IC50, C32 human melanoma cells
[6] = Mus musculus, B16, read-out: Viability, B16 IC50
[7] = Homo sapiens, C32, read-out: Viability, C32 IC50, C32 cells
[8] = Mus musculus, B16 mouse melanoma cells, read-out: GM3 B16 IC50
[9] = Homo sapiens, C32 human melanoma cells, read-out: GM3 C32 IC50
[10] = Mus musculus, B16, B16 cells, concentration causing 50% cell death, values greater than 10 represent a lack of cell death, read-out: Viability, B16 IC50
[11] = Homo sapiens, C32, C32 cells, read-out: Viability, C32 IC50

pIC50 [2, 8] | pIC50 [3, 9] | Compound | pIC50 [1] | pIC50 (B16 mouse melanoma cells; [10]) | pIC50 (C32 human melanoma cells; [11]) | other results
 |  | CC(C)(NC(=O)OC1CN2CCC1CC2)c1ccc(-c2ccc(C(=O)N3CC(F)(F)C3)cc2)cc1 (stereo not drawn) [Example 273, Quinuclidin-3-yl 2-(4′-(3,3-difluoroazetidine-1-carbonyl)biphenyl-4-yl)propan-2-ylcarbamate] | 6.97 |  |  | pIC50 [2, 4]: 7.13; pIC50 [3, 5]: 7.97; pIC50 (B16 mouse melanoma cells; [6]): ≤ 5.00; pIC50 (C32 human melanoma cells; [7]): 5.50
6.41 | 7.65 | COCCCOc1ccc(-c2ccc(C(C)(C)NC(=O)N3CCN4CCC3CC4)cc2)cc1 [Example 174, N-(2-(4′-(3-Methoxypropoxy)-[1,1′-biphenyl]-4-yl)propan-2-yl)-1,4-diazabicyclo[3.2.2]nonane-4-carboxamide] | 6.87 | ≤ 5.00 | 6.00 | 
7.04 | 8.14 | COCCCOc1ccc(-c2nc(C(C)(C)NC(=O)OC3CCN4CCC3CC4)cs2)cc1 (stereo not drawn) [Example 341, 1-Azabicyclo[3.2.2]nonan-4-yl (2-(2-(4-(3-methoxypropoxy)phenyl)thiazol-4-yl)propan-2-yl)carbamate] | 7.71 | ≤ 5.00 | ≤ 5.00 | 
5.79 | 6.52 | CN(C)C(=O)c1ccc(-c2ccc(C(C)(C)NC(=O)N3CCN4CCC3CC4)cc2)cc1 [Example 260, N-(2-(4′-(Dimethylcarbamoyl)biphenyl-4-yl)propan-2-yl)-1,4-diazabicyclo[3.2.2]nonane-4-carboxamide] | 5.07 | ≤ 5.00 | ≤ 5.00 | 
 |  | N-(4-Methyl-1-azabicyclo[3.2.2]nonan-4-yl)-4-(3-(pyrimidin-5-yl)phenyl)piperazine-1-carboxamide [Example 27] | 4.78 |  |  | pIC50 ([2]; B16 mouse melanoma cells, read-out: GM3 B16 IC50): < 5.00; pIC50 ([3]; C32 human melanoma cells, read-out: GM3 C32 IC50): 6.10; pIC50 (B16 mouse melanoma cells; B16 cells, concentration causing 50% cell death, values greater than 10 represent a lack of cell death, read-out: Viability, B16 IC50): ≤ 5.00; pIC50 (C32 human melanoma cells; C32 cells, read-out: Viability, C32 IC50): ≤ 5.00
 |  | CC(C)(NC(=O)OC1CN2CCC1CC2)c1ccc(-c2ccc(C(=O)N3CCOCC3)cc2)cc1 (stereo not drawn) [Example 265, Quinuclidin-3-yl 2-(4′-(morpholine-4-carbonyl)biphenyl-4-yl)propan-2-ylcarbamate] | 6.32 |  |  | pIC50 [2, 4]: 6.34; pIC50 [3, 5]: 7.40; pIC50 (B16 mouse melanoma cells; [6]): ≤ 5.00; pIC50 (C32 human melanoma cells; [7]): 5.67
6.52 | 9.03 | CC1(NC(=O)C2CCN(c3cncc(-c4ccc(F)cc4)c3)CC2)CCN2CCC1CC2 (stereo not drawn) [Example 107, 1-(5-(4-Fluorophenyl)pyridin-3-yl)-N-(4-methyl-1-azabicyclo[3.2.2]nonan-4-yl)piperidine-4-carboxamide] | 8.32 | ≤ 5.00 | 7.11 | 
6.74 | 7.91 | CC1(NC(=O)N2CCN(c3cccc(-c4ccccc4)c3)CC2)CCN2CCC1CC2 (stereo not drawn) [Example 16, 4-([1,1′-Biphenyl]-3-yl)-N-(4-methyl-1-azabicyclo[3.2.2]nonan-4-yl)piperazine-1-carboxamide] | 7.31 | 5.17 | 6.00 | 
5.47 | 7.70 | CNC(=O)c1ccc(-c2ccc(C(C)(C)NC(=O)NC3(C)CCN4CCC3CC4)cc2)cc1 (stereo not drawn) [Example 255, N-Methyl-4′-(2-(3-(4-methyl-1-aza-bicyclo[3.2.2]nonan-4-yl)ureido)propan-2-yl)biphenyl-4-carboxamide] | 7.33 | 5.17 | 6.00 | 
 |  | O=C(OC1CN2CCC1CC2)N1CCN(c2ccccc2)CC1 (stereo not drawn) [Example 12, Quinuclidin-3-yl 4-phenylpiperazine-1-carboxylate] | 4.91 |  |  | pIC50 [2, 4]: < 5.00; pIC50 [3, 5]: < 5.00; pIC50 (B16 mouse melanoma cells; read-out: Viability, B16 IC50, B16 cells, concentration causing 50% cell death, values greater than 10 represent a lack of cell death): ≤ 5.00; pIC50 (C32 human melanoma cells; read-out: Viability, C32 IC50, C32 cells): ≤ 5.00
7.77 | 9.81 | CC1(NC(=O)C2CCN(c3ncc(Oc4ccc(F)cc4)cn3)CC2)CCN2CCC1CC2 (stereo not drawn) [Example 130, 1-(5-(4-Fluorophenoxy)pyrimidin-2-yl)-N-(4-methyl-1-azabicyclo[3.2.2]nonan-4-yl)piperidine-4-carboxamide] | 9.05 | 5.25 | 6.50 | 
6.71 | 8.97 | COCc1ccc(-c2ccnc(N3CCN(C(=O)NC4(C)CCN5CCC4CC5)CC3C(F)F)n2)cc1 (stereo not drawn) [Example 150, 3-(Difluoromethyl)-4-(4-(4-(methoxymethyl)phenyl)pyrimidin-2-yl)-N-(4-methyl-1-azabicyclo[3.2.2]nonan-4-yl)piperazine-1-carboxamide] | 7.64 | 5.26 | 6.00 | 
6.56 | 7.55 | CC(C)(NC(=O)N1CCN2CCC1CC2)c1ccc(-c2ccc(OCCC3COC3)cc2)cc1 [Example 196, N-(2-(4′-(2-(Oxetan-3-yl)ethoxy)-[1,1′-biphenyl]-4-yl)propan-2-yl)-1,4-diazabicyclo[3.2.2]nonane-4-carboxamide] | 6.27 | ≤ 5.00 | 6.00 | 
6.41 | 7.07 | COCCCOc1ccc(-c2nc(C(C)(C)NC(=O)N3CCN4CCC3CC4)cs2)cc1 [Example 342, N-(2-(2-(4-(3-Methoxypropoxy)phenyl)thiazol-4-yl)propan-2-yl)-1,4-diazabicyclo[3.2.2]nonane-4-carboxamide] | 6.18 | ≤ 5.00 | ≤ 5.00 | 

Compound | pIC50 [2, 8] | pIC50 [3, 9] | pIC50 [1] | pIC50 (B16 mouse melanoma cells; [10]) | pIC50 (C32 human melanoma cells; [11]) | other results
CC(C)(NC(=O)NC1(C)CN2CCC1CC2)c1ccc(-c2ccc(N3CCOCC3)cc2)cc1 (stereo not drawn) [Example 232, 1-(3-Methylquinuclidin-3-yl)-3-(2-(4′-morpholino-[1,1′-biphenyl]-4-yl)propan-2-yl)urea] | 7.19 | 8.14 | 7.51 | 6.00 | 6.00 | 
CNC(=O)c1cccc(Oc2cccc(C(C)(C)NC(=O)NC3(C)CN4CCC3CC4)c2)c1 (stereo not drawn) [Example 296, N-Methyl-3-(3-(2-(3-(3-methylquinuclidin-3-yl)ureido)propan-2-yl)phenoxy)benzamide] | 5.26 | 6.81 | 6.70 | ≤ 5.00 | ≤ 5.00 | 
COCCCOc1ccc(-c2ccc(C3(NC(=O)NC4(C)CN5CCC4CC5)CC3)cc2)cc1 (stereo not drawn) [Example 176, 1-(1-(4′-(3-Methoxypropoxy)-[1,1′-biphenyl]-4-yl)cyclopropyl)-3-(3-methylquinuclidin-3-yl)urea] | 7.66 | 8.83 | 8.39 | ≤ 5.00 | ≤ 5.00 | 
COCCOCc1ccc(-c2ccnc(N3CCC(C)(C(=O)NC4(C)CN5CCC4CC5)CC3)n2)cc1 (stereo not drawn) [Example 98, 1-(4-(4-((2-Methoxyethoxy)methyl)phenyl)pyrimidin-2-yl)-4-methyl-N-(3-methylquinuclidin-3-yl)piperidine-4-carboxamide] | 5.72 | 8.09 | 7.11 | 5.09 | 6.00 | 
O=C(NC1CN2CCC1CC2)C1CCN(c2nccc(-c3ccc(F)cc3)n2)CC1 (stereo not drawn) [Example 45, 1-(4-(4-Fluorophenyl)pyrimidin-2-yl)-N-(quinuclidin-3-yl)piperidine-4-carboxamide] | 6.90 | 9.34 | 8.57 | ≤ 5.00 | 6.00 | 
CC1(NC(=O)N2CCN(c3cccc(-c4ccccc4)c3)CC2)CN2CCC1CC2 (stereo not drawn) [Example 15, 4-([1,1′-Biphenyl]-3-yl)-N-(3-methylquinuclidin-3-yl)piperazine-1-carboxamide] | 6.43 | 6.76 | 6.08 | ≤ 5.00 | ≤ 5.00 | 
CCCC1(NC(=O)NC(C)(C)C#Cc2ccc(CCOC)cc2)CN2CCC1CC2 (stereo not drawn) [Example 326, 1-(4-(4-(2-Methoxyethyl)phenyl)-2-methylbut-3-yn-2-yl)-3-(3-propylquinuclidin-3-yl)urea] | 6.91 | 8.37 | 7.58 | 5.50 | 5.50 | 
